US9102670B2, “Pyrido-, pyrazo- and pyrimido-pyrimidine derivatives as mTOR inhibitors” (KuDOS Pharmaceuticals Limited, priority 2006, dated 2015)
Where two headings read alike, the source gives them in different places.

Test system: phosphorylation of Serine 473 in Akt
Experiment: In Vitro Phospho-Ser473 Akt Assay in MDA-MB-468 cells
Assay type: cell-based
Conditions: Homo sapiens
[1] = MDA-MB-468, read-out: IC50 values against mTOR, phospho-Ser473 Akt assay, MDA-MB-468 cells
[2] = MDA-MB-468, read-out: IC50 values against mTOR, phospho-Ser473 Akt assay, MDA-MB-468 cells, upper bound

Row | Compound | IC50 [1] [nM] | IC50 [2] [nM]
1 | CCOC(=O)C1CCCN(c2nc(N3CCOC[C@@H]3C)c3ccc(-c4ccc(OC)c(CO)c4)nc3n2)C1 (stereo partly drawn) [Example 18r] | < 100 | –
2 | COc1ccc(-c2ccc3c(N4CCOC[C@@H]4C)nc(N4CC[C@H](O)C4)nc3n2)cc1CO [Example 18ab] | < 300 | –
3 | C[C@H]1COCCN1c1nc(N2CCOC[C@@H]2C)c2ccc(-c3cccc(CS(C)(=O)=O)c3)nc2n1 [Example 4t] | – | < 1000
4 | C[C@H]1COCCN1c1nc(N2CCOC[C@@H]2C)c2ccc(-c3ccc(CN)cc3)nc2n1 [Example 4b] | < 100 | –
5 | CNCc1cc(-c2ccc3c(N4CCOC[C@@H]4C)nc(N4CCOC[C@@H]4C)nc3n2)ccc1F [Example 4x] | < 100 | –
6 | COCc1cccc(-c2nc(N3CCOC[C@@H]3C)c3ccc(-c4ccc(OC)c(CO)c4)nc3n2)c1 [Example 19l] | – | < 1000
7 | COc1ccc(-c2ccc3c(N4CCOC[C@@H]4C)nc(-n4ccnc4)nc3n2)cc1CO [Example 18ay] | < 300 | –
8 | COc1ccc(-c2ccc3c(N4CCOC[C@@H]4C)nc(NCCN(C)C)nc3n2)cc1CO [Example 18cb] | – | < 1000
9 | COCCNCc1cc(-c2ccc3c(N4CCOC[C@@H]4C)nc(N4CCOC[C@@H]4C)nc3n2)ccc1F [Example 4aa] | < 300 | –
10 | COc1ccc(-c2ccc3c(N4CCOC[C@@H]4C)nc(N4CCCC(c5ccccc5)C4)nc3n2)cc1CO (stereo partly drawn) [Example 18j] | – | < 1000
11 | C[C@H]1COCCN1c1nc(N2CCOC[C@@H]2C)c2ccc(-c3ccc(C#N)cc3)nc2n1 [Example 1bl] | < 100 | –
12 | COc1ccc(-c2ccc3c(N4CCOC[C@@H]4C)nc(N4CCOC[C@@H]4C)nc3n2)cc1CNCCC(C)(C)C [Example 4as] | < 100 | –
13 | C[C@H]1COCCN1c1nc(N2CCOC[C@@H]2C)c2ccc(-c3cccc(C#N)c3)nc2n1 [Example 1aw] | – | < 1000
14 | COc1ccc(-c2ccc3c(N4CCOC[C@@H]4C)nc(N4CCOC[C@@H]4C)nc3n2)cc1CNC1CCOCC1 [Example 4aq] | < 100 | –
15 | C[C@H]1COCCN1c1nc(N2CCOCC2)nc2nc(-c3ccc(Cl)cc3)ccc12 [Example 18di] | < 300 | –
16 | CON(C)C(=O)c1cc(-c2ccc3c(N4CCOC[C@@H]4C)nc(N4CCOC[C@@H]4C)nc3n2)ccc1F [Example 3y] | < 100 | –
17 | COc1ccc(-c2ccc3c(N4CCOC[C@@H]4C)nc(N4CCCC(CO)C4)nc3n2)cc1CO (stereo partly drawn) [Example 18y] | < 100 | –
18 | C[C@H]1COCCN1c1nc(N2CCOC[C@@H]2C)c2ccc(-c3ccc(N4CCOCC4)nc3)nc2n1 [Example 1q] | < 300 | –
19 | C[C@H]1COCCN1c1nc(N2CCOC[C@@H]2C)c2ccc(-c3ccc(Cl)cc3)nc2n1 [Example 1bp] | < 300 | –
20 | COCCNCc1cccc(-c2ccc3c(N4CCOC[C@@H]4C)nc(N4CCOC[C@@H]4C)nc3n2)c1 [Example 4o] | < 100 | –
21 | COCCOc1nc(N2CCOC[C@@H]2C)c2ccc(-c3ccc(OC)c(CO)c3)nc2n1 [Example 18cx] | < 300 | –
22 | C[C@H]1COCCN1c1nc(N2CCOC[C@@H]2C)c2ccc(-c3ccc4[nH]ccc4c3)nc2n1 [Example 1bm] | < 100 | –
23 | CC(C)CC(=O)NCc1cccc(-c2ccc3c(N4CCOC[C@@H]4C)nc(N4CCOC[C@@H]4C)nc3n2)c1 [Example 5f] | – | < 1000
24 | COc1ccc(-c2ccc3c(N4CCOC[C@@H]4C)nc(N[C@H](C)CO)nc3n2)cc1CO [Example 18bw] | < 100 | –

Row | Compound | IC50 [1] [nM] | IC50 [2] [nM]
25 | C[C@H]1COCCN1c1nc(N2CCOC[C@@H]2C)c2ccc(-c3cccc(S(N)(=O)=O)c3)nc2n1 [Example 1bd] | < 300 | –
26 | C[C@H]1COCCN1c1nc(N2CCOC[C@@H]2C)c2ccc(-c3ccc(F)c(C(=O)NCCO)c3)nc2n1 [Example 1ag] | < 100 | –
27 | C[C@H]1COCCN1c1nc(N2CCOC[C@@H]2C)c2ccc(-c3cccc(CN4CC[C@H](O)C4)c3)nc2n1 [Example 4s] | < 100 | –
28 | COc1ccc(-c2ccc3c(N4CCOC[C@@H]4C)nc(-n4cnc(C)c4C=O)nc3n2)cc1CO [Example 18ba] | < 100 | –
29 | C[C@H]1COCCN1c1nc(N2CCC(CCO)CC2)nc2nc(-c3ccc(N)nc3)ccc12 [Example 2j] | – | < 1000
30 | C[C@H]1COCCN1c1nc(N2CCOC[C@@H]2C)c2ccc(-c3cccc(C(=O)N4CCN(C)CC4)c3)nc2n1 [Example 1bf] | – | < 1000
31 | C[C@H]1COCCN1c1nc(N2CCOC[C@@H]2C)c2ccc(-c3cccc(C(=O)NCC(F)F)c3)nc2n1 [Example 3l] | < 100 | –
32 | COC(=O)c1cncn1-c1nc(N2CCOC[C@@H]2C)c2ccc(-c3ccc(OC)c(CO)c3)nc2n1 [Example 18az] | – | < 1000
33 | COc1ccc(-c2ccc3c(N4CCOC[C@@H]4C)nc(-c4cccc([N+](=O)[O-])c4)nc3n2)cc1CO [Example 19i] | – | < 1000
34 | COc1ccc(-c2ccc3c(N4CCOC[C@@H]4C)nc(N4CCOC[C@@H]4C)nc3n2)cc1 [Example 1bo] | < 300 | –
35 | COc1ccc(-c2ccc3c(N4CCOC[C@@H]4C)nc(N4CCCC(c5nc(C)no5)C4)nc3n2)cc1CO (stereo partly drawn) [Example 18ar] | < 100 | –
36 | Cc1nn(C)c(C)c1-c1nc(N2CCOC[C@@H]2C)c2ccc(-c3cccc(CO)c3)nc2n1 [Example 19w] | – | < 1000
37 | C[C@H]1COCCN1c1nc(N2CCOC[C@@H]2C)c2ccc(-c3cccc(O)c3)nc2n1 [Example 1h] | < 100 | –
38 | COc1ccc(-c2ccc3c(N4CCOC[C@@H]4C)nc(N4CCCCC(N)C4)nc3n2)cc1CO (stereo partly drawn) [Example 18e] | < 300 | –
39 | COCc1cc(-c2ccc3c(N4CCOC[C@@H]4C)nc(N4CCOC[C@@H]4C)nc3n2)ccc1F [Example 9a] | < 300 | –
40 | C[C@H]1COCCN1c1nc(N2CCOC[C@@H]2C)c2ccc(-c3ccc(N)nc3)nc2n1 [Example 1u] | < 100 | –
41 | COc1ccc(-c2ccc3c(N4CCOC[C@@H]4C)nc(Nc4ccncn4)nc3n2)cc1CO [Example 18n] | – | < 1000
42 | CCN(CC)CCCNCc1cc(-c2ccc3c(N4CCOC[C@@H]4C)nc(N4CCOC[C@@H]4C)nc3n2)ccc1OC [Example 4av] | < 300 | –
43 | COc1ccc(-c2ccc3c(N4CCOC[C@@H]4C)nc(N4CCNCC4)nc3n2)cc1CO [Example 18ca] | < 300 | –
44 | C[C@H]1COCCN1c1nc(N2CCOC[C@@H]2C)c2ccc(-c3cccnc3)nc2n1 [Example 1bu] | – | < 1000
45 | COc1ccc(C(=O)C2CCN(c3nc(N4CCOC[C@@H]4C)c4ccc(-c5ccc(OC)c(CO)c5)nc4n3)CC2)cc1 [Example 18w] | < 300 | –
46 | COc1ccc(-c2ccc3c(N4CCOC[C@@H]4C)nc(N4CCCC(N)C4)nc3n2)cc1CO (stereo partly drawn) [Example 18au] | < 100 | –
47 | CNCc1ccc(-c2ccc3c(N4CCOC[C@@H]4C)nc(N4CCOC[C@@H]4C)nc3n2)o1 [Example 7c] | < 100 | –
48 | C[C@H]1COCCN1c1nc(N2CCOC[C@@H]2C)c2ccc(-c3ccc(F)c(CN)c3)nc2n1 [Example 4u] | < 100 | –

Row | Compound | IC50 [1] [nM] | IC50 [2] [nM]
49 | COc1ccc(-c2ccc3c(N4CCOC[C@@H]4C)nc(Nc4ccccc4)nc3n2)cc1CO [Example 18m] | < 100 | –
50 | CC(=O)N(C)Cc1ccc(-c2ccc3c(N4CCOC[C@@H]4C)nc(N4CCOC[C@@H]4C)nc3n2)cc1 [Example 5r] | – | < 1000
51 | C[C@H]1COCCN1c1nc(N2CCOC[C@@H]2C)c2ccc(-c3ccc(F)c(CN4CC[C@@H](O)C4)c3)nc2n1 [Example 4ad] | < 300 | –
52 | COc1ccc(-c2ccc3c(N4CCOC[C@@H]4C)nc(-n4ccnc4C)nc3n2)cc1CO [Example 18cn] | < 300 | –
53 | CCOCc1cccc(-c2ccc3c(N4CCOC[C@@H]4C)nc(N4CCOC[C@@H]4C)nc3n2)c1 [Example 4g] | < 300 | –
54 | C[C@H]1COCCN1c1nc(N2CCOC[C@@H]2C)c2ccc(-c3ccc(CNCC4CC4)o3)nc2n1 [Example 7g] | < 100 | –
55 | C[C@H]1COCCN1c1nc(N2CCC(c3ccncc3)CC2)nc2nc(-c3ccc(N)nc3)ccc12 [Example 2e] | – | < 1000
56 | C[C@H]1COCCN1c1nc(N2CCOC[C@@H]2C)c2ccc(-c3ccc(CN4CC[C@@H](O)C4)cc3)nc2n1 [Example 4c] | < 100 | –
57 | COc1ccc(-c2ccc3c(N4CCOC[C@@H]4C)nc(N4CCC(N)CC4)nc3n2)cc1CO [Example 18ad] | < 100 | –
58 | CC(C)N(C)Cc1cc(-c2ccc3c(N4CCOC[C@@H]4C)nc(N4CCOC[C@@H]4C)nc3n2)ccc1F [Example 4ai] | < 100 | –
59 | COc1ccc(-c2ccc3c(N4CCOC[C@@H]4C)nc(N4CC(C)CC(C)C4)nc3n2)cc1CO (stereo partly drawn) [Example 18ae] | < 100 | –
60 | C[C@H]1COCCN1c1nc(N2CCOC[C@@H]2C)c2ccc(-c3cccc(CNC(=O)C(F)(F)F)c3)nc2n1 [Example 5g] | < 300 | –
61 | COc1ccc(-c2ccc3c(N4CCOC[C@@H]4C)nc(N4CCOC[C@@H]4C)nc3n2)cc1CNCCO [Example 4ba] | < 100 | –
62 | COc1ccc(-c2ccc3c(N4CCOC[C@@H]4C)nc(N4CCC(C)CC4)nc3n2)cc1CO [Example 18t] | < 100 | –
63 | COc1ccc(-c2ccc3c(N4CCOC[C@@H]4C)nc(-c4cccc(C)c4)nc3n2)cc1CO [Example 19n] | – | < 1000
64 | C[C@H]1COCCN1c1nc(N2CCOC[C@@H]2C)c2ccc(-c3cccc(CN(C)C(=O)C(F)(F)F)c3)nc2n1 [Example 5n] | < 300 | –
65 | COc1ccc(-c2ccc3c(N4CCOC[C@@H]4C)nc(N4CCC(CN)CC4)nc3n2)cc1CO [Example 18s] | < 100 | –
66 | COc1ccc(-c2ccc3c(N4CCOC[C@@H]4C)nc(N4CCOCC4)nc3n2)cc1CO [Example 1l] | < 100 | –
67 | COCCN(CCOC)c1nc(N2CCOC[C@@H]2C)c2ccc(-c3ccc(OC)c(CO)c3)nc2n1 [Example 18cj] | < 100 | –
68 | COc1ccc(-c2ccc3c(N4CCOC[C@@H]4C)nc(NCCF)nc3n2)cc1CO [Example 18bt] | < 300 | –
69 | CC(C)C(=O)NCc1cccc(-c2ccc3c(N4CCOC[C@@H]4C)nc(N4CCOC[C@@H]4C)nc3n2)c1 [Example 5d] | – | < 1000
70 | C[C@H]1COCCN1c1nc(N2CCOC[C@@H]2C)c2ccc(-c3ccc(CO)cc3)nc2n1 [Example 1g] | < 100 | –
71 | C[C@H]1COCCN1c1nc(N2CCOC[C@@H]2C)c2ccc(-c3ccccc3)nc2n1 [Example 1d] | < 100 | –
72 | C[C@@H]1CN(c2nc(N3CCOC[C@@H]3C)c3ncc(-c4ccccc4)nc3n2)C[C@H](C)O1 [Example 12a] | < 100 | –
